From ChEMBL document CHEMBL5321270, “Discovery of Pyrazolone Carbothioamide Derivatives as Inhibitors of the Pdr1-KIX Interaction for Combinational Treatment of Azole-Resistant Candidiasis” (J Med Chem, 2023)
Converted amounts (≈) assume the structure as drawn. The source made the active and inactive calls. The calls are words filed in the database; no cut-off is given here.

Experiments:
[1] = AUC (0-infinity) in ICR mouse at 10 mg/kg,po measured upto 24 hrs by LC-MS/MS analysis; type: ADME, organism-based; set-up: time < 24 hrs, dose 10 mg/kg, route po; conditions: in vivo
Nannizzia gypsea = assay: Antifungal activity against Microsporum gypseum assessed as fungal growth inhibition incubated for 48 hrs by microplate reader assay; type: functional
Cryptococcus neoformans = assay: Antifungal activity against Cryptococcus neoformans H99 assessed as fungal growth inhibition incubated for 48 hrs by microplate reader assay; type: functional
Nakaseomyces glabratus [2] = assay: Antifungal activity against fluconazole-resistant Candida glabrata 0161 assessed as fungal growth inhibition at 4 ug/ml incubated for 48 hrs by time-growth curve assay; type: functional, organism-based; conditions: dose 4.0 µg/ml
Nakaseomyces glabratus [3] = assay: Antifungal activity against fluconazole-resistant Candida glabrata 0161 assessed as inhibition of fungal growth at 2 to 16 ug/ml incubated for 48 hrs by Spot plating assay; type: functional, organism-based; conditions: dose 2-16 µg/ml
Nakaseomyces glabratus [4] = assay: Synergistic antifungal activity against fluconazole-resistant Candida glabrata 0161 assessed as inhibition of fungal growth at 2 to 16 ug/ml incubated for 48 hrs in presence of fluconazole by Spot plating assay; type: functional, organism-based; conditions: dose 2-16 µg/ml
Nakaseomyces glabratus [5] = assay: Antifungal activity against fluconazole-resistant Candida glabrata 0161 assessed as inhibition of fungal mature biofilm formation at 0.25 to 64 ug/ml incubated for 24 hrs by XXT reduction menadione assay; type: functional, organism-based; conditions: dose 0.25-64 µg/ml
Nakaseomyces glabratus [6] = assay: Synergistic antifungal activity against fluconazole-resistant Candida glabrata 0161 assessed as inhibition of fungal mature biofilm formation at 1 to 64 ug/ml incubated for 24 hrs in presence of fluconazole by XXT reduction menadione assay; type: functional, organism-based; conditions: dose 1-64 µg/ml
Nakaseomyces glabratus [7] = assay: Synergistic antifungal activity against fluconazole-resistant Candida glabrata 0161 assessed as inhibition of Rhodamine 6G efflux at 1 to 8 ug/ml incubated for 25 hrs in presence of fluconazole by Rhodamine 6G staining based fluorescence assay; type: functional, organism-based; conditions: dose 1-8 µg/ml
[8] = Tmax in ICR mouse at 2 mg/kg,iv measured upto 24 hrs by LC-MS/MS analysis; type: ADME, organism-based; conditions: in vivo
[9] = Oral bioavailability in ICR mouse at 10 mg/kg measured upto 24 hrs by LC-MS/MS analysis; type: ADME, organism-based; conditions: in vivo

## Nc1cc(=O)n(C(=S)Nc2ccc3c(c2)CCC3)[nH]1
[1]
  AUC(0-inf): 390 ng·h/mL
Nannizzia gypsea
  MIC: 1 µg/mL (≈ 3.64 µM)
Cryptococcus neoformans
  MIC: 0.063 µg/mL (≈ 0.23 µM)
Nakaseomyces glabratus [2]
  Activity: Active
Nakaseomyces glabratus [3]
  Activity: Active
Nakaseomyces glabratus [4]
  Activity: Active
Nakaseomyces glabratus [5]
  inhibition: inactive
Nakaseomyces glabratus [6]
  inhibition: Active
Nakaseomyces glabratus [7]
  Activity: Active
[8]
  Tmax: 4.8 min
[9]
  bioavailability: 15.9%
